Consider one molecule from patent publication US11230578B2, “Peptides and use of same in the treatment of diseases, disorders or conditions associated with a mutant P53” (Yeda Research and Development Co. Ltd., priority 2016, dated 2022).

Read-outs that look alike come from different tables or passages of the source.

In series [1] the test system is ES2 ovarian cancer cells (p53 mutant S241F). It counts as cell-based.
Experimental: Cells were cultured in 96 wells plates with 3000 cells/well. […] Then medium was removed and cell viability was determined by staining the cells with crystal violet (0.05%) in methanol/PBS (1:5, v/v), for 10 min, followed by 3 washes with PBS. 10% acetic acid was added to each well for 10 min. OD was determined at 595 nm.
Cells, ES2 Con expressing endogenous mp53^S241F, and ES2 KO cells in which p53 was stably knocked out using CRISPR/Cas9 (ES2 p53KO), to control for specificity for mutp53 were cultured in 96 wells plates with 3000 cells/well. Indicated peptides were added at a concentration of 8 μg/ml and the plates incubated for additional 48 h at 37° C. Then medium was removed and cell viability was determined by staining the cells with crystal violet (0.05%) in methanol/PBS (1:5, v/v), for 10 min, followed by 3 washes with PBS. 10% acetic acid was added to each well for 10 min. OD was determined at 595 nm.
Cells were cultured in 96 wells plates with 3000 cells/well. Serial dilutions of different peptides were added and the plates incubated for additional 48 h at 37° C. Then the medium was removed and cell viability was determined by staining the cells with crystal violet (0.05%) in methanol/PBS (1:5, v/v), for 10 min, followed by 3 washes with PBS. 10% acetic acid was added to each well for 10 min. OD was determined at 595 nm. Results are normalized to non-treated cells 100% viability.
Cells were cultured in 96 wells plates with 2500-4000 cells/well. Serial dilutions of different peptides were added and the plates incubated for additional 48 h at 37° C. Then medium was removed and cell viability was determined by staining the cells with crystal violet (0.05%) in methanol/PBS (1:5, v/v), for 10 min, followed by 3 washes with PBS. 10% acetic acid was added to each well for 10 min. OD was determined at 595 nm.
ES2 Cells were cultured in 96 wells plates with 3000 cells/well. […] Then medium was removed and cell viability was determined by staining the cells with crystal violet (0.05%) in methanol/PBS (1:5, v/v), for 10 min, followed by 3 washes with PBS. 10% acetic acid was added to each well for 10 min. OD was determined at 595 nm.
Cells, ES2 Con expressing endogenous mp53S241F, and ES2 KO cells in which p53 was stably knocked out using CRISPR/Cas9 (ES2 p53KO), to control for specificity for mutp53 were cultured in 96 wells plates with 3000 cells/well. The indicated peptides were added at a concentration of 8 μg/ml and the plates incubated for additional 48 h at 37° C. Then medium was removed and cell viability was determined by staining the cells with crystal violet (0.05%) in methanol/PBS (1:5, v/v), for 10 min, followed by 3 washes with PBS. 10% acetic acid was added to each well for 10 min. OD was determined at 595 nm.
Series [2] in a line: Pharmacokinetic study, plasma half life. It counts as in vivo. The text has this: FIGS. 4A-D show the pharmacokinetics of various modes of administration.
The test system of series [3] is ES2 cells expressing luciferase. Description: ES2 ovarian cancer mouse xenograft model, luciferase live imaging. It counts as in vivo, nude mice. How it is done:
2*10^5 ES2 cells expressing luciferase were injected into the hips of nude mice. Bioluminescence was measured. […] The background threshold detection level of the IVIS system was about 5×10^6 photons. […]
Mice (6 weeks Athymic nude) were injected subcutaneously with 2×10^5-10^6 cells into each […]. All the cell lines employed in these experiments stably express a luciferase reporter gene to enable monitoring of tumor growth by live imaging. 4-18 days later, when tumors reached visible size, the mice were randomly divided into several groups: a control group, treated with either a single control peptide, and groups treated with effective peptide, either a single peptide. Peptides were administered either by intratumoral injection of 10 μg peptide per tumor in 40 μl PBS, three times a week or by Alzet mini pumps 0.8 mg for two weeks. Tumor growth over time was measured by live imaging, using the IVIS2000 system. Exposure time was calibrated to 20 seconds. 16 images were taken over 8 minutes and peak luminescence values were taken for each tumor. Experiments were conducted until tumors reached maximal allowed size of 1 cm^3, at which mice were sacrificed and tumors extracted, measured and weighed.

On to `CCCCCCCCCCCCCC(=O)N[C@@H](CCCNC(=N)N)C(=O)N[C@@H](CCCNC(=N)N)C(=O)N[C@@H](Cc1c[nH]cn1)C(=O)N[C@@H](CO)C(=O)N[C@H](C(=O)N1CCC[C@H]1C(=O)N[C@@H](Cc1c[nH]cn1)C(=O)N1CCC[C@H]1C(=O)N[C@@H](CC(=O)O)C(=O)O)[C@@H](C)O` [pCAP-250], for which the IC50 is 3200 nM in series [1] (48 h) and 1900 nM in series [1] (read-out: IC50 for pCAP-250 in combination with cisplatin, cell viability, ES2 cells, together with 1 μg/ml of cisplatin, 48 h, estimated). Further, the “viability of the cancer cells in the presence of peptide” value in series [1] (ES2 cells, FIG. 1) is given as “reduced significantly”. For the same molecule, the “combination effect of pCAP-250 and cisplatin” value in series [1] (ES2 cells, pCAP-250 dilutions + 1 μg/ml cisplatin, 48 h) was “synergistic effect”. In addition, the half-life fell in the range of 0.8 to 1.8 h in series [2] (iv, 1 mg/kg, administered intravenously) and 3 to 8 h in series [2] (sc, administered subcutaneously). Besides, the “effect on tumor development of ES2 cells” value in series [3] (intratumoral injections, 0.4 mg/kg 3 times a week) was “significant effect”; in series [3] (subcutaneously by Alzet minipumps, 2.3 mg/kg per day) it was “significant effect”.

One may read the IC50 as the point on the concentration scale where inhibition reaches its midpoint. A word on the half-life: it is the time needed for the level to fall by half in the phase considered. The low end stands for fast loss, the high end for slow loss.
